In patent US20250319032A1, “PHARMACEUTICAL COMPOSITIONS OF RIBOCICLIB” (Novartis AG, priority 2024, published 2025):
One block for each compound: values may come before it.

Columns and labels:
[1] = DMP433 (N-nitroso-ribociclib) content in ribociclib base (B10) and ribociclib succinate (B12, drug substance) batches and process experiments, LC-MS/MS or HPLC-HRMS; type: physicochemical; settings: for DMP433 [ppm] LOQ (0.0625 ppm) / DMP433 [ppm], result in brackets (extrapolation, estimate of actual value below LOQ): ribociclib base (LEE011 B10); for DMP433 [ppb]: additional batches of ribociclib base LEE011-B10 (IP-1); for DMP433 in B10: starting material of 5 kg technical batches
Source text: The method of testing for the presence and/or total amount of nitrosamines (such as the presence and/or total amount of N-nitroso-ribociclib in free or salt form) that is used in the methods of the invention may be any method which allows for the detection of nitrosamines in a composition. For example, the method may involve the Griess test described above. In such a method, the nitrosamines may be first denitrosated (e.g., by photolysis) to form a nitrite, which is then detected in the Griess test. Alternatively, the method may include high performance liquid chromatography (HPLC)- and/or gas chromatography (GC)-mass spectroscopy. An example of a method of testing for the presence and amount of nitrosamines (namely N-nitroso-ribociclib) is provided herein as Example 14. […]
2.7. […] Dissolve the substance using vortex and fill to volume with solvent (50% MeOH). • 3. Filter through 0.2 μm PVDF (polyvinylidene difluoride) or PTFE (polytetrafluoroethylene) filter into a HPLC amber vial, discard the first 0.5 ml.
A calibration curve for DMP433 is created, using calibration standard solutions L1-L6, and expressing the relationship between responses (peak areas) and standard concentrations (ng/ml). For L1, the average of 6 injections is used. Linear regression is weighed with 1/amount. […]

[2] = Nitrite content (ion chromatography; LC-FLD with DAN derivatisation; Griess test) in drug substance, intermediates, reagents, solvents, filters, excipients; type: physicochemical
Source text: The method of testing for the presence and/or total amount of nitrites that is used in the methods of the invention may be any method which allows for the detection and/or quantitation of nitrites in a composition. For example, the method may be the Griess test. The Griess test allows for the detection and analysis of nitrite by the formation of a red-pink colour upon treatment of a nitrite-containing sample with the Griess reagent. The Griess reagent consists of two components in an acidic solution: an aniline derivative and a coupling agent. The most common arrangements use sulfanilamide and N-(1-naphthyl)ethylenediamine. For example 0.2% N-(1-naphthyl)ethylenediamine dihydrochloride and 2% sulfanilamide in 5% phosphoric acid may be used as a Griess reagent. Other aniline derivatives that may be used in a Griess reagent include sulfanilic acid, nitroaniline, and p-aminoacetophenone.
The Griess test involves two subsequent reactions, as shown in the scheme below. When the aniline derivative (e.g., sulfanilamide) is added, the nitrite ion reacts with it in the Griess diazotization reaction to form a diazonium salt, which then reacts with N-(1-naphthyl)ethylenediamine in an azo-coupling reaction, forming a pink-red azo-dye. Using a spectrophotometer, the nitrite concentration can then be quantitatively detected.
Additionally purified water; e.g. Milli Q • 2.
• 10 mM KH2PO4 Weigh accurately about 1.361 g of KH2PO4 into a 1 L volumetric flask, dissolve it in approximately 950 mL of additionally purified water and adjust the pH to 8.0 (with 2.7 M NaOH). Make up to the mark with additionally purified water. • 0.62 M HCl Add a few millilitres (e.g. 20 mL) of additionally purified water to a 200 mL volumetric flask, add 10.280 mL of concentrated HCl, mix and make up to the mark with additionally purified water. • 2.7 M NaOH Weigh accurately about 1.092 g of NaOH pellets into a 10 mL volumetric flask and dissolve it in additionally purified water. Cool to room temperature and make up to the mark with the same solvent. • Reagent DAN Weigh accurately about 5 mg of 2,3-diaminophthalene into a 100 mL volumetric flask and dissolve it with the solvent (methanol/water 1:1 (v/v)). Dilute up to the mark and ensure visual full dissolution. Use an amberglass flask. • Mobile phase A Mix 950 mL of 10 mM KH2PO4 solution (pH=8) and add 50 mL methanol. • Mobile phase B Methanol. • Solvent Methanol/water 1:1 (v/v), e.g. mix 2000 mL of additionally purified water and 2000 mL methanol.
• Instrument: HPLC with FLR detector; e.g. Waters Arc or equivalent • Column: C18 50×4.6 mm, 2.5 μm, e.g. XBridge C18 2.5 μm, 4.650 mm or equivalent
• Notes It is recommended to wear additional protective equipment (face mask and gloves) during weighing. • It is recommended to wash the column with 50% methanol after the analysis (example of preparation: mix 500 mL methanol and 500 m1 of additionally purified water). • It is recommended to rinse the injector with solvent after each injection. • All glassware and tools should be rinsed with additionally purified water before use. It is not recommended to leave the solutions open for a longer time before measurement. • Blank solution 1 Transfer 1 mL of solvent into a HPLC vial and perform derivatization as described below. • Blank solution 2 Transfer 10 mL of solvent into a single use glass vial and mix it on a magnetic stirrer for 30 min. Transfer the solution into a 5 mL centrifuge tube and centrifuge for 10 min at 12000 rpm. […] Fill up to the mark with solvent and mix. • (Cnitrite≈0.0005 mg/mL) • Comparison solution Transfer 10 mL of nitrite stock solution into a 500 mL volumetric flask. • (2 parallels) Fill up to the mark with solvent and mix. • Transfer 1 mL solution into a HPLC vial and perform the derivatization as described below. • (Cnitrite≈100 ppb) • Sample solution Accurately weigh about 1000 mg of the sample into a glass vial for single use and add 10 mL of solvent.

[3] = additional batches of ribociclib base LEE011-B10 (IP-1)
[4] = starting material used in the theoretical calculation
[5] = laboratory use test, salt formation B10 to B12 with filter parts added (filter per experiment), AS&T LJ LC-MS/MS
[6] = laboratory use test, salt formation B10 to B12 with filter parts added, QLS LJ LC-FLD/DAN

SMILES: CN(C)C(=O)c1cc2cnc(Nc3ccc(N4CCNCC4)cn3)nc2n1C1CCCC1 [Batch B704193]
DMP433 [ppb] [1]: 57 ppb | DMP433 [ppm] LOQ (0.0625 ppm) [1]: LOQ | DMP433 [ppm], result in brackets (extrapolation, estimate of actual value below LOQ) [1]: 0.006 ppm | Nitrite [ppm] LOD (1 ppm) [2, 3]: <LOD

SMILES: CN(C)C(=O)c1cc2cnc(Nc3ccc(N4CCNCC4)cn3)nc2n1C1CCCC1 [Batch B705468]
DMP433 [ppb] [1]: 130 ppb | DMP433 [ppm] [1, 4]: 0.03 ppm | Nitrite [ppm] LOD (1 ppm) [2, 3]: <LOD | Nitrite [ppm] [2, 4]: <0.1 ppm

SMILES: CN(C)C(=O)c1cc2cnc(Nc3ccc(N4CCNCC4)cn3)nc2n1C1CCCC1 [LEE011-B10 24003]
DMP433 (ppm) in B10 ([1]; B10 batches on commercial scale, potassium carbonate of different nitrite level): 0.05 ppm | Nitrite [ppm] ([2]; in B10 batches on commercial scale, potassium carbonate of different nitrite level): 0.1 ppm

SMILES: CN(C)C(=O)c1cc2cnc(Nc3ccc(N4CCNCC4)cn3)nc2n1C1CCCC1.O=C(O)CCC(=O)O [LEE011-cusakal1-021]
DMP433 [ppm] [1, 5]: 1.682 LJ ppm | Nitrite [ppm] [2, 6]: app. 0.26 ppm

SMILES: CN(C)C(=O)c1cc2cnc(Nc3ccc(N4CCNCC4)cn3)nc2n1C1CCCC1 [LEE011-cusakal1-032]
DMP433 [ppm] [1, 5]: 1.487 ppm | Nitrite [ppm] [2, 6]: app. 0.3 ppm

SMILES: CN(C)C(=O)c1cc2cnc(Nc3ccc(N4CCNCC4)cn3)nc2n1C1CCCC1.O=C(O)CCC(=O)O [LEE011-cusakal1-033]
DMP433 [ppm] [1, 5]: 1.272 ppm | Nitrite [ppm] [2, 6]: app. 0.3 ppm

SMILES: CN(C)C(=O)c1cc2cnc(Nc3ccc(N4CCNCC4)cn3)nc2n1C1CCCC1.O=C(O)CCC(=O)O [LEE011-cusakal1-035]
DMP433 [ppm] [1, 5]: 1.661 ppm | Nitrite [ppm] [2, 6]: app. 0.2 ppm

SMILES: CN(C)C(=O)c1cc2cnc(Nc3ccc(N4CCNCC4)cn3)nc2n1C1CCCC1.O=C(O)CCC(=O)O [LEE011-cusakan1-050]
DMP433 [ppm] [1, 5]: 0.530 ppm | Nitrite [ppm] [2, 6]: app. 0.6 ppm

SMILES: CN(C)C(=O)c1cc2cnc(Nc3ccc(N4CCNCC4)cn3)nc2n1C1CCCC1.O=C(O)CCC(=O)O [Technical batch 1]
DMP433 in B10 [1]: 55.8 ppb

Second part, the compound after the results:

DMP433 [ppm] LOQ (0.0625 ppm) [1]: LOQ | DMP433 [ppm], result in brackets (extrapolation, estimate of actual value below LOQ) [1]: 0.048 ppm | Nitrite [ppm] LOD (1 ppm) ([2]; ribociclib base (LEE011 B10), ion chromatography): <LOD
SMILES: CN(C)C(=O)c1cc2cnc(Nc3ccc(N4CCNCC4)cn3)nc2n1C1CCCC1 [Batch 923037A005]

DMP433 [ppm] [1, 5]: 1.789 ppm | Nitrite [ppm] [2, 6]: app. 0.2 ppm
SMILES: CN(C)C(=O)c1cc2cnc(Nc3ccc(N4CCNCC4)cn3)nc2n1C1CCCC1.O=C(O)CCC(=O)O [LEE011-cusakal1-034]

DMP433 [ppm] [1, 5]: 2.100 ppm | Nitrite [ppm] [2, 6]: app. 0.3 ppm
SMILES: CN(C)C(=O)c1cc2cnc(Nc3ccc(N4CCNCC4)cn3)nc2n1C1CCCC1.O=C(O)CCC(=O)O [LEE011-cusakal1-036]

DMP433 in B10 [1]: 55.8 ppb | reduction of the amount of DMP433 formed by use of distilled iPrOH ([1]; technical batch 2 (distilled) vs technical batch 1 (non-distilled)): approx. 50%
SMILES: CN(C)C(=O)c1cc2cnc(Nc3ccc(N4CCNCC4)cn3)nc2n1C1CCCC1.O=C(O)CCC(=O)O [Technical batch 2]
